Data on one compound can be found in patent US8921270B2, “Method for pre-emergent weed control using triazine-based herbicide” (Amvac Chemical Corporation, priority 2011, dated 2014).

For data set [1], the system named is corn. As to the kind of experiment: Crop tolerance (corn) field trial, Laurel, Md., light soil (Example 2). Type of data set: in vivo. The method, then: (§1) Several scientific and replicated field research trials were conducted in multiple locations to evaluate weed control and crop tolerance of herbicide compositions containing about 80% by weight of ametryn active ingredient in the form of a water dispersible granule (WDG). The herbicide compositions were applied to the soil surface with or without weeds present at specific intervals i) before planting (preplant), ii) prior to planting and incorporated into the soil (preplant incorporated), and iii) after planting of the corn, but prior to emergence (preemergence).
(§2) Small plot research trials were conducted using a statistical design known as Randomized Complete Block Design (RCBD), which assumes that a population of experimental units can be divided into a number of relatively homogeneous subpopulations or blocks. […] In the analysis, the variation among blocks can be partitioned out of the experimental error (MSE), thereby reducing this quantity and increasing the power of the test. […]
(§3) Efficacy on weeds and crop tolerance evaluations were conducted at specified intervals for each trial. […] Crop tolerance was evaluated at intervals of 7 to 14, 21 to 28, and 42 to 56 days after corn emergence in these trials. […] In an additional trial, efficacy of ametryn at rates of 1.2, 1.6 and 2.4 lb ai/a applied PRE was evaluated on grass and broadleaf weeds at the same intervals as the earlier trials. […]

Data set [2] relates to corn. Particulars: in vivo. As to the method: as §1, §2, §3
Another data set has as its system Goosegrass. As to the kind of experiment: Weed control field trial, Laurel, Md., light textured soil (Example 4). Particulars: 0.8, 1.6, 2.4 lb ai/a; 14 days preplant, 2 days preplant, PRE; 21 and 35 days after corn emergence. Type of data set: in vivo. As to the method: as §1, §2, §3
The subject of another data set is Lambsquaters. The data set is described as above. Type of data set: in vivo. Particulars: 0.8, 1.6, 2.4 lb ai/a; 14 days preplant, 2 days preplant, PRE; 21 and 35 days after corn emergence. As to the method:
as §1, §2, §3

The subject of data set [3] is corn. Particulars: in vivo. The method, then: as §1, §2, §3
The source holds these as a separate data set.

The next data set has as its system Cocklebur. Briefly: Weed control field trial, Richland, Iowa, fine textured soil (Example 6). Type of data set: in vivo. Particulars: PRE; 4 weeks observation after application. The method, then: as §1
(§4) Small plot research trials were conducted using a statistical design known as Randomized Complete Block Design (RCBD), which assumes that a population of experimental units can be divided into a number of relatively homogeneous subpopulations or blocks. The treatments are then randomly assigned to experimental units such that each treatment occurs equally often (usually once) in each block—i.e., each block contains all treatments. Blocks usually represent levels of naturally occurring differences or sources of variation that are unrelated to the treatments. In the analysis, the variation among blocks can be partitioned out of the experimental error (MSE), thereby reducing this quantity and increasing the power of the test. See, Clewer, A. G., and D. H. Scarisbrick. 2001. Practical statistics and experimental design for plant and crop science. John Wiley & Sons Ltd., New York. crop science. Treatment size was typically 4 rows of corn on 30-inch row spacing×30 feet long replicated 3 to 4 times. Preplant, preplant incorporated (PPI), or preemergence (PRE) treatments were uniformly applied with a hand-held backpack sprayer pressurized with compressed air or carbon dioxide (CO2) as the propellant to simulate commercial scale application. Treatments were applied using flat fan nozzle or spray nozzles at from 30 to 35 pounds per square inch (psi) delivering from 15 to 20 gallons of finished spray solution per acre.
(§5) Efficacy on weeds and crop tolerance evaluations were conducted at specified intervals for each trial. Ametryn herbicide (80% WDG) was applied to the soil at the times relative to planting as indicated at rates of 0.8, 1.2, 1.6, and 2.4 pounds of active ingredient per acre (lb ai/a) at various days preplant up to right before planting (0 day preplant), or immediately following planting (PRE), but before crop emergence. Crop tolerance was evaluated at intervals of 7 to 14, 21 to 28, and 42 to 56 days after corn emergence in these trials. Crop injury, if observed, was reported on a 0 to 100% visual rating scale and the type of injury (e.g., stunting) was noted. The efficacy of ametryn at a rate of 0.8, 1.2, 1.6 and 2.4 lbs ai/a applied 7 to 14 days preplant was evaluated on grass and broadleaf weeds at intervals of 7 to 14, 21 to 28, and 42 to 56 days after corn emergence. Efficacy trials were also conducted in no tillage and reduced tillage cropping systems, allowing for evaluations of existing weeds at application (i.e., burndown) and residual control of weeds which germinate following application. In an additional trial, efficacy of ametryn at rates of 1.2, 1.6 and 2.4 lb ai/a applied PRE was evaluated on grass and broadleaf weeds at the same intervals as the earlier trials. Efficacy in the later trials was conducted in both conventional and reduced tillage systems, which allowed for evaluations of residual weed control following application. A local commercial corn hybrid was planted in each trial location.
(§6) A weed control field trial was conducted in Richland, Iowa on a fine textured soil (e.g., silty clay loam). […]

The test system of a further data set is Giant Foxtail. The data set is described as above. Type of data set: in vivo. Particulars: PRE; 4 weeks observation after application. As to the method: as §1, §4, §5, §6
A further data set relates to Giant Ragweed. The data set is described as above. Particulars: PRE; 4 weeks observation after application. Type of data set: in vivo. The method, then:
as §1, §4, §5, §6

The test system of a further data set is Morningglory. The description is as above. Type of data set: in vivo. The following applies: PRE; 4 weeks observation after application. As to the method: as §1, §4, §5, §6
In data set [4] the test system is Velvetleaf. The description is as above. Type of data set: in vivo. Particulars: PRE; 4 weeks observation after application. As to the method: as §1, §4, §5, §6
Data set [5] concerns Waterhemp. Described as above. Type of data set: in vivo. Particulars: PRE; 4 weeks observation after application. As to the method:
as §1, §4, §5, §6

The test system of the next data set is Lambsquarters. As to the kind of experiment: Weed control field trial, Wyoming, Ill., medium textured soil (Example 7). Type of data set: in vivo. The following applies: PRE; 8 weeks observation after application. As to the method:
as §1, §4
(§7) Efficacy on weeds and crop tolerance evaluations were conducted at specified intervals for each trial. […] Crop tolerance was evaluated at intervals of 7 to 14, 21 to 28, and 42 to 56 days after corn emergence in these trials. […] The efficacy of ametryn at a rate of 0.8, 1.2, 1.6 and 2.4 lbs ai/a applied 7 to 14 days preplant was evaluated on grass and broadleaf weeds at intervals of 7 to 14, 21 to 28, and 42 to 56 days after corn emergence. […] In an additional trial, efficacy of ametryn at rates of 1.2, 1.6 and 2.4 lb ai/a applied PRE was evaluated on grass and broadleaf weeds at the same intervals as the earlier trials. […]

The test system of data set [6] is Velvetleaf. The data set is described as above. Type of data set: in vivo. Particulars: PRE; 8 weeks observation after application. As to the method:
as §1, §4, §7

The test system of data set [7] is corn. Briefly: Corn injury in weed control field trial, Laurel, Md., light textured soil (Example 9). Type of data set: in vivo. The method, then:
as §1, §4, §7

For data set [8], the system named is corn. The following applies: in vivo. The method, then:
as §1, §2, §3
The source holds these as a separate data set.

The subject of data set [9] is corn. The following applies: in vivo. As to the method:
as §1, §2, §3
This is another data set of the same source.

Another data set relates to Green Foxtail. As to the kind of experiment: Weed control field trial, York, Nebr., medium textured soil (Example 11). Type of data set: in vivo. The following applies: PRE; 4 weeks after application. As to the method: as §1
(§8) Small plot research trials were conducted using a statistical design known as Randomized Complete Block Design (RCBD), which assumes that a population of experimental units can be divided into a number of relatively homogeneous subpopulations or blocks. The treatments are then randomly assigned to experimental units such that each treatment occurs equally often (usually once) in each block—i.e., each block contains all treatments. Blocks usually represent levels of naturally occurring differences or sources of variation that are unrelated to the treatments. In the analysis, the variation among blocks can be partitioned out of the experimental error (MSE), thereby reducing this quantity and increasing the power of the test. See, Clewer, A. G., and D. H. Scarisbrick. 2001. Practical statistics and experimental design for plant and crop science. John Wiley & Sons Ltd., New York. crop science. […]
as §7

Data set [10] has as its system Velvetleaf. The data set is described as above. Type of data set: in vivo. The following applies: PRE; 4 weeks after application. The method, then:
as §1, §8, §7

Data set [11] relates to Waterhemp. Described as above. Type of data set: in vivo. Particulars: PRE; 4 weeks after application. The method, then:
as §1, §8, §7

Structures are written as SMILES. Like-named read-outs stand apart in the source and are kept apart here.

Consider `CCNc1nc(NC(C)C)nc(SC)n1` [ametryn, 2-ethylamino-4-isopropylamino-6-methylthio-s-triazine], for which the figures for the Corn yield result in the data set with corn [1] (even though visual injury was measured at certain times) and in the data set with corn [7] (even when minor injury was observed) were “no reduction in yield” and “no negative effect on yield”, respectively. For the same compound, the Corn injury result is “non-significant or no injury” with corn [1] (in vivo), “No injury” with corn [2] and “Minor injury” in the data set on corn [7] (in vivo). Besides, the Percent weed control result in the data set on Goosegrass and in the data set with Lambsquaters was “significant improvement of weed control over the untreated treatment” in each case. The “Percent corn injury (corn safety)” value with corn [3] is “excellent corn safety”. Further, the Weed control entry is listed as “moderate to good control” with Cocklebur; “moderate to good control” in the data set with Giant Foxtail; “moderate to good control” in the data set on Giant Ragweed; “moderate to good control” in the data set with Morningglory; “moderate to good control” in the data set with Velvetleaf [4]; “excellent control” in the data set with Waterhemp [5]. Moreover, the Weed control result in the data set on Lambsquarters is recorded as “good control”; in the data set on Velvetleaf [6], “good control”; in the data set on Green Foxtail it was “good control”; with Velvetleaf [10] it was “moderate control”; in the data set on Waterhemp [11], “good control”. Further, the “Percent corn injury (safety to corn versus commercial standard)” value in the data set on corn [7] (in vivo) was “as safe to corn as a commercial standard of isoxaflutole with cyprosulfamide”. Also, in the data set with corn [7] (in vivo), the Safety to corn entry is on record as “excellent safety”. In addition, the “Percent corn injury (safety to corn)” value in the data set with corn [8] and in the data set on corn [9] was “acceptable safety” throughout.
